# Assay results taken from patent US5776944A, “7-(4-aminomethyl-3-methyloxyiminopyrroplidin-1-yl)-1-cyclopropyl-6-flu oro-4-oxo-1,4-dihydro-1,8-naphthyridine-3-carboxylic acid and the process for the preparation thereof” (LG Chemical Ltd., priority 1994, dated 1998).
# Where two headings read alike, the source gives them in different places.
# Tests used:
# Format in all cases: cell-based
# [1] = test system: Streptococcus faecalis 29212; assay: In vitro antibacterial activity (MIC, agar dilution), Biological Example 1; conditions: Enterococcus faecalis, 18 h; Streptococcus faecalis 29212, Table 25; read-out: Minimum Inhibitory Concentration
# [2] = test system: Pseudomonas aeruginosa 10145; assay: as above; conditions: 18 h; Pseudomonas aeruginosa 10145, Table 25; read-out: Minimum Inhibitory Concentration
# [3] = test system: Staphylococcus epidermidis 178; assay: as above; conditions: 18 h; Staphylococcus epidermidis 178, Table 25; read-out: Minimum Inhibitory Concentration
# [4] = test system: Enterobacter cloacae P99; assay: microbe, parasite or virus in culture; conditions: P99, 18 h, read-out: Minimum Inhibitory Concentration
# [5] = test system: Staphylococcus aureus 77; assay: In vitro antibacterial activity (MIC, agar dilution), Biological Example 1; conditions: 18 h; Staphylococcus aureus 77, Table 25; read-out: Minimum Inhibitory Concentration
# [6] = test system: Escherichia coli TEM5 3739E; assay: microbe, parasite or virus in culture; conditions: TEM53739E, 18 h, read-out: Minimum Inhibitory Concentration
# [7] = test system: Pseudomonas aeruginosa 1912E; assay: In vitro antibacterial activity (MIC, agar dilution), Biological Example 1; conditions: 18 h, read-out: Minimum Inhibitory Concentration
# [8] = test system: Klebsiella aerogenes 1082E; assay: as above; conditions: 18 h, Table 25, read-out: Minimum Inhibitory Concentration
# [9] = test system: Acinetobacter calcoaceticus 15473; assay: as above; conditions: read-out: Minimum Inhibitory Concentration
# [10] = test system: Escherichia coli TEM9 2639E; assay: microbe, parasite or virus in culture; conditions: TEM92639E, 18 h, read-out: Minimum Inhibitory Concentration
# [11] = test system: Staphylococcus epidermidis 887E; assay: In vitro antibacterial activity (MIC, agar dilution), Biological Example 1; conditions: 18 h, Table 25, read-out: Minimum Inhibitory Concentration
# [12] = test system: Bacillus subtilis 6633; assay: as above; conditions: 18 h; Bacillus subtilis 6633, Table 25; read-out: Minimum Inhibitory Concentration
# [13] = test system: Escherichia coli TEM3 3455E; assay: microbe, parasite or virus in culture; conditions: TEM33455E, 18 h, read-out: Minimum Inhibitory Concentration
# [14] = test system: Micrococcus luteus 9341; assay: In vitro antibacterial activity (MIC, agar dilution), Biological Example 1; conditions: 18 h; Micrococcus luteus 9341, Table 25; read-out: Minimum Inhibitory Concentration
# [15] = test system: Staphylococcus aureus giorgio; assay: as above; conditions: 18 h, Table 25, read-out: Minimum Inhibitory Concentration
# [16] = test system: Escherichia coli 10536; assay: as above; conditions: read-out: Minimum Inhibitory Concentration
# [17] = test system: Staphylococcus aureus 241; assay: as above; conditions: 18 h; Staphylococcus aureus 241, Table 25; read-out: Minimum Inhibitory Concentration
# [18] = test system: Klebsiella aerogenes 1976E; assay: as above; conditions: 18 h, Table 25, read-out: Minimum Inhibitory Concentration
# [19] = test system: Salmonella typimurium 14028; assay: as above; conditions: 18 h; Salmonella typimurium 14028, Table 25; read-out: Minimum Inhibitory Concentration
# [20] = test system: Staphylococcus aureus 6538p; assay: as above; conditions: 18 h, Table 25, read-out: Minimum Inhibitory Concentration
# [21] = test system: Citrobacter diversus 2046E; assay: as above; conditions: Citrobacter koseri, 18 h, Table 25, read-out: Minimum Inhibitory Concentration
# [22] = test system: Escherichia coli 3190Y; assay: as above; conditions: 18 h, Table 25, read-out: Minimum Inhibitory Concentration
# [23] = test system: Enterobacter cloacae 1194E; assay: microbe, parasite or virus in culture; conditions: 18 h, read-out: Minimum Inhibitory Concentration
# [24] = test system: Escherichia coli 851E; assay: In vitro antibacterial activity (MIC, agar dilution), Biological Example 1; conditions: 18 h, Table 25, read-out: Minimum Inhibitory Concentration
# [25] = Pseudomonas aeruginosa 1912E, Table 25
# [26] = 18 h, Acinetobacter calcoaceticus 15473, Table 25
# [27] = 18 h, Escherichia coli 10536, Table 25
Compound,MIC [1],MIC [2],MIC [3],MIC [4],MIC [5],MIC [6],MIC [8],MIC [10],MIC [11],MIC [12],MIC [13],MIC [14],MIC [15],MIC [17],MIC [18],MIC [19],MIC [20],MIC [21],MIC [22],MIC [23],further results
"NCC1CN(c2cc3c(cc2F)c(=O)c(C(=O)O)cn3C2CC2)CC1=NOCc1ccccc1 (stereo not drawn) [Example 12, 7-(4-animomethyl-3-benzyloxyimino-pyrrolidin-1-yl)-1-cyclcopropyl-6-fluoro-1,4-dihydro-4-oxoquinoline-3-carboxylic acid]",0.031 µg/mL,0.5 µg/mL,0.5 µg/mL,0.063 µg/mL,≤ 0.008 µg/mL,0.25 µg/mL,0.13 µg/mL,0.25 µg/mL,≤ 0.008 µg/mL,≤ 0.008 µg/mL,0.5 µg/mL,0.13 µg/mL,≤ 0.008 µg/mL,1 µg/mL,1 µg/mL,0.25 µg/mL,≤ 0.008 µg/mL,0.13 µg/mL,0.016 µg/mL,0.13 µg/mL,"MIC [7, 25]: 2 µg/mL; MIC [9, 26]: 0.016 µg/mL; MIC [16, 27]: ≤ 0.008 µg/mL; MIC [24]: 0.063 µg/mL"
"NCC1CN(c2c(F)c(N)c3c(=O)c(C(=O)O)cn(C4CC4)c3c2F)CC1=NOCc1ccccc1 (stereo not drawn) [Example 56, 5-amino-7-(4-aminomethyl-3-benzyloxylmino-pyrrolidin-1-yl)-1-cyclopropyl6,8-difluoro-1,4-dihydro-4-oxoquinoline-3-carboxylic acid]",0.016 µg/mL,2 µg/mL,2 µg/mL,≤ 0.008 µg/mL,≤ 0.008 µg/mL,0.25 µg/mL,0.016 µg/mL,0.063 µg/mL,≤ 0.008 µg/mL,≤ 0.008 µg/mL,0.5 µg/mL,0.063 µg/mL,≤ 0.008 µg/mL,2 µg/mL,0.5 µg/mL,0.031 µg/mL,≤ 0.008 µg/mL,0.016 µg/mL,≤ 0.008 µg/mL,0.031 µg/mL,"MIC [7, 25]: 2 µg/mL; MIC [9, 26]: ≤ 0.008 µg/mL; MIC [16, 27]: ≤ 0.008 µg/mL; MIC [24]: ≤ 0.008 µg/mL"
CC(C)ON=C1CN(c2nc3c(cc2F)c(=O)c(C(=O)O)cn3C2CC2)CC1CN (stereo not drawn) [Example 97],0.063 µg/mL,1 µg/mL,1 µg/mL,≤ 0.008 µg/mL,0.016 µg/mL,0.063 µg/mL,0.13 µg/mL,0.031 µg/mL,≤ 0.008 µg/mL,≤ 0.008 µg/mL,0.13 µg/mL,0.063 µg/mL,≤ 0.008 µg/mL,2 µg/mL,0.25 µg/mL,0.13 µg/mL,≤ 0.008 µg/mL,0.063 µg/mL,≤ 0.008 µg/mL,0.063 µg/mL,"MIC [7, 25]: 1 µg/mL; MIC [9, 26]: 0.016 µg/mL; MIC [16, 27]: ≤ 0.008 µg/mL; MIC [24]: 0.031 µg/mL"
CC(C)CON=C1CN(c2nc3c(cc2F)c(=O)c(C(=O)O)cn3C2CC2)CC1CN (stereo not drawn) [Example 102],0.063 µg/mL,2 µg/mL,1 µg/mL,0.031 µg/mL,0.016 µg/mL,0.25 µg/mL,0.25 µg/mL,0.063 µg/mL,≤ 0.008 µg/mL,≤ 0.008 µg/mL,0.5 µg/mL,0.063 µg/mL,≤ 0.008 µg/mL,4 µg/mL,0.5 µg/mL,0.25 µg/mL,0.016 µg/mL,0.13 µg/mL,≤ 0.008 µg/mL,0.25 µg/mL,"MIC [7, 25]: 2 µg/mL; MIC [9, 26]: 0.063 µg/mL; MIC [16, 27]: ≤ 0.008 µg/mL; MIC [24]: 0.063 µg/mL"
C#CCON=C1CN(c2nc3c(cc2F)c(=O)c(C(=O)O)cn3C2CC2)CC1CN (stereo not drawn) [Example 103],0.031 µg/mL,0.5 µg/mL,4 µg/mL,≤ 0.008 µg/mL,≤ 0.008 µg/mL,0.063 µg/mL,0.031 µg/mL,0.031 µg/mL,≤ 0.008 µg/mL,≤ 0.008 µg/mL,0.13 µg/mL,0.13 µg/mL,≤ 0.008 µg/mL,4 µg/mL,0.063 µg/mL,0.031 µg/mL,≤ 0.008 µg/mL,0.13 µg/mL,≤ 0.008 µg/mL,0.016 µg/mL,"MIC [7, 25]: 0.5 µg/mL; MIC [9, 26]: 0.031 µg/mL; MIC [16, 27]: ≤ 0.008 µg/mL; MIC [24]: ≤ 0.008 µg/mL"
C#CCCON=C1CN(c2nc3c(cc2F)c(=O)c(C(=O)O)cn3C2CC2)CC1CN (stereo not drawn) [Example 104],0.031 µg/mL,1 µg/mL,4 µg/mL,0.016 µg/mL,≤ 0.008 µg/mL,0.13 µg/mL,0.031 µg/mL,0.031 µg/mL,0.016 µg/mL,≤ 0.008 µg/mL,0.25 µg/mL,0.13 µg/mL,≤ 0.008 µg/mL,8 µg/mL,0.13 µg/mL,0.031 µg/mL,≤ 0.008 µg/mL,≤ 0.008 µg/mL,≤ 0.008 µg/mL,≤ 0.008 µg/mL,"MIC [7, 25]: 1 µg/mL; MIC [9, 26]: ≤ 0.008 µg/mL; MIC [16, 27]: ≤ 0.008 µg/mL; MIC [24]: ≤ 0.008 µg/mL"
"CON=C1CN(c2c(F)cc3c(=O)c(C(=O)O)cn(C4CC4)c3c2Cl)CC1CN (stereo not drawn) [Example 178, 7-(4-aminomethyl-3-methoxyiminopyrrolidin-1-yl)-8-chloro-1-cycloprooyl-6-fluoro-4-oxo-1,4-dihydroquinoline-3-carboxylic acid]",0.063 µg/mL,1 µg/mL,1 µg/mL,0.063 µg/mL,0.031 µg/mL,0.5 µg/mL,0.25 µg/mL,0.25 µg/mL,0.031 µg/mL,0.016 µg/mL,1 µg/mL,0.25 µg/mL,0.016 µg/mL,1 µg/mL,0.5 µg/mL,0.063 µg/mL,0.031 µg/mL,0.13 µg/mL,0.016 µg/mL,0.13 µg/mL,"MIC ([7]; Pseudomonas aeruginosa, 1912E): 0.5 µg/mL; MIC ([9]; Acinetobacter calcoaceticus, 15473, 18 h): 0.13 µg/mL; MIC ([16]; Escherichia coli, 10536, 18 h): 0.031 µg/mL; MIC [24]: 0.063 µg/mL"
